Molecular target: T1, P2X2/3 (Homo sapiens, UniProt P56373+Q9UBL9)
T1 construct: expressed in transfected cells; host or cells: HEK293
T1 sequence (Q9UBL9 1-471): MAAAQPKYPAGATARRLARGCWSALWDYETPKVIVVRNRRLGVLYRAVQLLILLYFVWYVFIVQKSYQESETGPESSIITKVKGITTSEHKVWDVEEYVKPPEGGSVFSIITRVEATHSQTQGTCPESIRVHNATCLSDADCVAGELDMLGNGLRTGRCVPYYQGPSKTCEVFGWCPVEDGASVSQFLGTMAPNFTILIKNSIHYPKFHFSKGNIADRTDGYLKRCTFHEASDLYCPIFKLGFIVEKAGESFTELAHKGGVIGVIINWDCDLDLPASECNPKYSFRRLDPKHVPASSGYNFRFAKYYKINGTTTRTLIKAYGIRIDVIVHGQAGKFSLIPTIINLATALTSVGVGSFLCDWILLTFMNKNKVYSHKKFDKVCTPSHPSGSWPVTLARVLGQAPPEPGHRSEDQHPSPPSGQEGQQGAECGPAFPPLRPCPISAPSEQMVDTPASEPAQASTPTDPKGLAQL
T1 sequence (P56373 1-397): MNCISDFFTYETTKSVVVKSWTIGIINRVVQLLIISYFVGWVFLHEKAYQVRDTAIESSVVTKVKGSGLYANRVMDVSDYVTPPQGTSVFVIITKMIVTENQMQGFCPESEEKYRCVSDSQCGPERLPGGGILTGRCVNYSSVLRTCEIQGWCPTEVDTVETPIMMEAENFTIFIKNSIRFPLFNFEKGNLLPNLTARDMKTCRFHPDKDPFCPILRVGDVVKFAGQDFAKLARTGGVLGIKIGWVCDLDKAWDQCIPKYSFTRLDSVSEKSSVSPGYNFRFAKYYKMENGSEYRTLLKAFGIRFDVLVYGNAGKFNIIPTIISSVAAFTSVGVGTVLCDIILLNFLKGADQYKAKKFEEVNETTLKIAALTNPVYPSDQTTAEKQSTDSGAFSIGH
Test: P2X2/3 stable HEK293 cell lines responding to α,β-meATP (screening assay)
Format: cell-based
Conditions: P2X2/3 stable HEK293 lines; FIGS. 8A and 8B
Description: In this study, we built stable cell lines expressing P2X2/3 in HEK293 cells via transfection with either P2X2-Neo or P2X3-Zeo constructs, following which selection was performed using Zeocin, G418. Picked clones were grown out from single cells (cultured continuously in the presence of Zeocin and G418) using cloning rings.
The resulted stable cell lines are used for characterizing putative taste-blockers.

response of the stable cell lines: dose-dependent manner
SMILES: COc1cc(C(C)C)c(Oc2cnc(N)nc2N)cc1I [AF-353, 5-[5-iodo-4-methoxy-2-(1-methylethyl)phenoxy]-2,4-pyrimidinediamine]

From patent publication US20240408211A1, “COMPOSITIONS AND METHODS OF AMELIORATING AVERSIVENESS OF AVERSIVE STIMULI BY INHIBITION OF PURINERGIC RECEPTORS” (Monell Chemical Senses Center, priority 2021, published 2024)
